Laboratory results taken from patent US20110182850A1, “ORGANIC COMPOUNDS AND THEIR USES” (priority 2009, published 2011).

biological target: T1, HCV NS3-4A serine protease (full-length NS3-4A protein, genotype 1a, strain HCV-1) (Hepatitis C virus genotype 1a, UniProt P26664); assay: HCV NS3-4A protease assay; type: biochemical; details: Protease IC50
T1 construct: using the full-length NS3-4A protein (genotype 1a, strain HCV-1)
Description: The inhibitory activity of certain compounds of Table A against HCV NS3-4A serine protease is determined in a homogenous assay using the full-length NS3-4A protein (genotype 1a, strain HCV-1) and a commercially available internally-quenched fluorogenic peptide substrate as described by Taliani, M., et al. 1996 Anal. Biochem. 240:60-67, which is incorporated by reference in its entirety.

T1 sequence (P26664 1658-1711): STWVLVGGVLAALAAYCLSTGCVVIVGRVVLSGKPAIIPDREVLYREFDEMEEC
T1 sequence (P26664 1027-1657): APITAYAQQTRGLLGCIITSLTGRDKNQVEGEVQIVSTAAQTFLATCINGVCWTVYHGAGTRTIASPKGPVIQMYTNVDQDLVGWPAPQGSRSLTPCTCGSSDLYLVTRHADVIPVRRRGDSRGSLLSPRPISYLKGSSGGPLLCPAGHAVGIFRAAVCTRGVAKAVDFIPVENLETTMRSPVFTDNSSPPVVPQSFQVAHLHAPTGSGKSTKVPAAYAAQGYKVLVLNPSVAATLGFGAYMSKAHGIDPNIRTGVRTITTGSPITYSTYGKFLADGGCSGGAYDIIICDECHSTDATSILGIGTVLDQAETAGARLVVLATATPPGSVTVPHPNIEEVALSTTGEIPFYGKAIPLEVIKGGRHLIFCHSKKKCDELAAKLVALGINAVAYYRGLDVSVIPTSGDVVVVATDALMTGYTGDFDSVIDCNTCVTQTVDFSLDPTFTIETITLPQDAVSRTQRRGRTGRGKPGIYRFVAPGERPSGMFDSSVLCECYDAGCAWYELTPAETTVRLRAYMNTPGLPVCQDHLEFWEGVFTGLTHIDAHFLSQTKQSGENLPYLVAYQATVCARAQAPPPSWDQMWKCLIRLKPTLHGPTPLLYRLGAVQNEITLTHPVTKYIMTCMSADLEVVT

Row | Compound | IC50 [nM]
1 | C=C[C@@H]1C[C@]1(NC(=O)[C@@H]1C[C@@]2(CN1C(=O)[C@@H](NC(=O)[C@@H](NC(=O)N(C)C)C(C)(C)C)C(C)(C)C)C(C)(C)C21CCC1)C(=O)NS(=O)(=O)C1CC1 [Compound 56, (5R,8S)-N-{(1R,2S)-1-[(cyclopropylsulfonyl)carba-moyl]-2-vinylcyclopropyl}-7-[(2S)-2-({(2S)-2-[(dimethylcarbamoyl)amino]-3,3-dimethylbutanoyl}amino)-3,3-dimethylbutanoyl]-10,10-dimethyl-7-azadispiro[3.0.4.1]decane-8-carboxamide] | 50
2 | C=C[C@@H]1C[C@]1(NC(=O)[C@@H]1C[C@@]2(CN1C(=O)[C@@H](NC(=O)[C@@H](NC(=O)[C@@H]1CCCCN1C(C)C)C1CCCCC1)C(C)(C)C)C(C)(C)C21CCC1)C(=O)NS(=O)(=O)c1ccccc1 [Compound 61, (5R,8S)-7-[(2S)-2-{[(2S)-2-cyclohexyl-2-({[(2S)-1-isopropylpiperidin-2-yl]carbonyl}amino)acetyl]amino}-3,3-dimethylbutanoyl]-10,10-dimethyl-N-{(1R,2S)-1-[(phenylsulfonyl)carbamoyl]-2-vinylcyclopropyl}-7-azadispiro[3.0.4.1]decane-8-carboxamide] | 1.5
3 | C=C[C@@H]1C[C@]1(NC(=O)[C@@H]1C[C@@]2(CN1C(=O)[C@@H](NC(=O)[C@@H](NC(=O)[C@@H]1CCCN1C(C)C)C1CCCCC1)C(C)(C)C)C(C)(C)C21CCC1)C(=O)NS(=O)(=O)c1ccccc1 [Compound 62, (5R,8S)-7-[(2S)-2-{[(2S)-2-cyclohexyl-2-({[(2S)-1-isopropylpyrrolidin-2-yl]carbonyl}amino)acetyl]amino}-3,3-dimethylbutanoyl]-10,10-dimethyl-N-{(1R,2S)-1-[(phenylsulfonyl)carbamoyl]-2-vinylcyclopropyl}-7-azadispiro[3.0.4.1]decane-8-carboxamide] | 0.7
4 | C=C[C@@H]1C[C@]1(NC(=O)[C@@H]1C[C@@]2(CN1C(=O)[C@@H](NC(=O)[C@@H](NC(=O)c1cnccn1)C1CCCCC1)C(C)(C)C)C(C)(C)C21CCC1)C(=O)NS(=O)(=O)C1(C)CC1 [Compound 64, (5R,8S)-7-[(2S)-2-({(2S)-2-cyclohexyl-2-[(pyrazin-2-ylcarbonyl)amino]acetyl}amino)-3,3-dimethylbutanoyl]-10,10-dimethyl-N-[(1R,2S)-1-{[(1-methylcyclopropyl)sulfonyl]carbamoyl}-2-vinylcyclopropyl]-7-azadispiro[3.0.4.1]decane-8-carboxamide] | 1.5
5 | C=C[C@@H]1C[C@]1(NC(=O)[C@@H]1C[C@@]2(CN1C(=O)[C@@H](NC(=O)[C@@H](NC(=O)[C@@H]1CCCCN1C(C)C)C1CCCCC1)C(C)(C)C)C(C)(C)C21CCC1)C(=O)NS(=O)(=O)C1(CC)CC1 [Compound 66, (5R,8S)-7-[(2S)-2-{[(2S)-2-cyclohexyl-2-({[(2S)-1-isopropylpiperidin-2-yl]carbonyl}amino)acetyl]amino}-3,3-dimethylbutanoyl]-N-[(1R,2S)-1-{[(1-ethylcyclopropyl)sulfonyl]carbamoyl}-2-vinylcyclopropyl]-10,10-dimethyl-7-azadispiro[3.0.4.1]decane-8-carboxamide] | 1.8
6 | C=C[C@@H]1C[C@]1(NC(=O)[C@@H]1C[C@@]2(CN1C(=O)[C@@H](NC(=O)[C@@H](NC(=O)[C@@H]1CCCN1C(C)C)C1CCCCC1)C(C)(C)C)C(C)(C)C21CCC1)C(=O)NS(=O)(=O)C1(C)CC1 [Compound 72, (5R,8S)-7-[(2S)-2-{[(2S)-2-cyclohexyl-2-({[(2S)-1-isopropylpyrrolidin-2-yl]carbonyl}amino)acetyl]amino}-3,3-dimethylbutanoyl]-10,10-dimethyl-N-[(1R,2S)-1-{[(1-methylcyclopropyl)sulfonyl]carbamoyl}-2-vinylcyclopropyl]-7-azadispiro[3.0.4.1]decane-8-carboxamide] | 2
7 | C=C[C@@H]1C[C@]1(NC(=O)[C@@H]1C[C@@]2(CN1C(=O)[C@@H](NC(=O)[C@@H](NC(=O)[C@@H]1CCCCN1CC)C1CCCCC1)C(C)(C)C)C(C)(C)C21CCC1)C(=O)NS(=O)(=O)C1(C)CC1 [Compound 73, (5R,8S)-7-[(2S)-2-{[(2S)-2-cyclohexyl-2-({[(2S)-1-ethylpiperidin-2-yl]carbonyl}amino)acetyl]amino}-3,3-dimethylbutanoyl]-10,10-dimethyl-N-[(1R,2S)-1-{[(1-methylcyclopropyl)sulfonyl]carbamoyl}-2-vinylcyclopropyl]-7-azadispiro[3.0.4.1]decane-8-carboxamide] | 3
8 | C=C[C@@H]1C[C@]1(NC(=O)[C@@H]1C[C@@]2(CN1C(=O)[C@@H](NC(=O)[C@@H](NC(=O)[C@@H]1CCCCN1C(C)C)C1CCCCC1)C(C)(C)C)C(C)(C)C21CCC1)C(=O)NS(=O)(=O)C(F)(F)F [Compound 78, (5R,8S)-7-[(2S)-2-{[(2S)-2-cyclohexyl-2-({[(2S)-1-isopropylpiperidin-2-yl]carbonyl}amino)acetyl]amino}-3,3-dimethylbutanoyl]-10,10-dimethyl-N-[(1R,2S)-1-{[(trifluoromethyl)sulfonyl]carbamoyl}-2-vinylcyclopropyl]-7-azadispiro[3.0.4.1]decane-8-carboxamide] | 2.5
9 | C=C[C@@H]1C[C@]1(NC(=O)[C@@H]1C[C@@]2(CN1C(=O)[C@@H](NC(=O)[C@@H](NC(=O)[C@@H]1CCCCN1CC)C1CCCCC1)C(C)(C)C)C(C)(C)C21CCC1)C(=O)NS(=O)(=O)C(F)(F)F [Compound 79, (5R,8S)-7-[(2S)-2-{[(2S)-2-cyclohexyl-2-({[(2S)-1-ethylpiperidin-2-yl]carbonyl}amino)acetyl]amino}-3,3-dimethylbutanoyl]-10,10-dimethyl-N-[(1R,2S)-1-{[(trifluoromethyl)sulfonyl]carbamoyl}-2-vinylcyclopropyl]-7-azadispiro[3.0.4.1]decane-8-carboxamide] | 2
10 | C=C[C@@H]1C[C@]1(NC(=O)[C@@H]1C[C@@]2(CN1C(=O)[C@@H](NC(=O)[C@@H](NC(=O)[C@@H]1CCCCN1C(C)C)C1CCCCC1)C(C)(C)C)C(C)(C)C21CCC1)C(=O)NS(=O)(=O)C1CCCC1 [Compound 80, (5R,8S)-7-[(2S)-2-{[(2S)-2-cyclohexyl-2-({[(2S)-1-isopropylpiperidin-2-yl]carbonyl}amino)acetyl]amino}-3,3-dimethylbutanoyl]-N-{(1R,2S)-1-[(cyclopentylsulfonyl)carbamoyl]-2-vinylcyclopropyl}-10,10-dimethyl-7-azadispiro[3.0.4.1]decane-8-carboxamide] | 10
11 | CC(C)N1CCCC[C@H]1C(=O)N[C@H](C(=O)N[C@H](C(=O)N1C[C@]2(C[C@H]1C(=O)NC1(C(=O)NS(=O)(=O)C3CC3)CCCC1)C(C)(C)C21CCC1)C(C)(C)C)C1CCCCC1 [Compound 84, (5R,8S)-7-[(2S)-2-{[(2S)-2-cyclohexyl-2-({[(2S)-1-isopropylpiperidin-2-yl]carbonyl}amino)acetyl]amino}-3,3-dimethylbutanoyl]-N-{1-[(cyclopropylsulfonyl)carba-moyl]cyclopentyl}-10,10-dimethyl-7-azadispiro[3.0.4.1]decane-8-carboxamide] | 100

same assay, conditions: read-out: Protease IC50

Row | IC50 [nM] | Compound
12 | 400 | C=C[C@@H]1C[C@]1(NC(=O)[C@@H]1C[C@@]2(CN1C(=O)[C@@H](NC(=O)[C@@H](NS(=O)(=O)C(C)C)C(C)(C)C)C(C)(C)C)C(C)(C)C21CCC1)C(=O)NS(=O)(=O)C1CC1 [Compound 58, (5R,8S)-N-{(1R,2S)-1-[(cyclopropylsulfonyl)carba-moyl]-2-vinylcyclopropyl}-7-[(2S)-2-({(2S)-2-[(isopropylsulfonyl)amino]-3,3-dimethylbutanoyl}amino)-3,3-dimethylbutanoyl]-10,10-dimethyl-7-azadispiro[3.0.4.1]decane-8-carboxamide]
13 | 400 | C=C[C@@H]1C[C@]1(NC(=O)[C@@H]1C[C@@]2(CN1C(=O)[C@@H](NC(=O)c1coc(CN(C)C)n1)C(C)(C)C)C(C)(C)C21CCC1)C(=O)NS(=O)(=O)C1CC1 [Compound 59, (5R,8S)-N-{(1R,2S)-1-[(cyclopropylsulfonyl)carba-moyl]-2-vinylcyclopropyl}-7-{(2S)-2-[({2-[(dimethylamino)methyl]-1,3-oxazol-4-yl}carbonyl)amino]-3,3-dimethylbutanoyl}-10,10-dimethyl-7-azadispiro[3.0.4.1]decane-8-carboxamide]
14 | 200 | C=C[C@@H]1C[C@]1(NC(=O)[C@@H]1C[C@@]2(CN1C(=O)[C@@H](NC(=O)[C@@H](CC(=O)N1CCCCC1)C(C)(C)C)C(C)(C)C)C(C)(C)C21CCC1)C(=O)NS(=O)(=O)C1CC1 [Compound 60, (5R,8S)-N-{(1R,2S)-1-[(cyclopropylsulfonyl)carba-moyl]-2-vinylcyclopropyl}-7-[(2S)-2-{[(2S)-3,3-dimethyl-2-(2-oxo-2-piperidin-1-ylethyl)butanoyl]amino}-3,3-dimethylbutanoyl]-10,10-dimethyl-7-azadispiro[3.0.4.1]decane-8-carboxamide]
15 | 70 | C=C[C@@H]1C[C@]1(NC(=O)[C@@H]1C[C@@]2(CN1C(=O)[C@@H](NC(=O)[C@@H](CC(=O)N(C)C)C(C)(C)C)C(C)(C)C)C(C)(C)C21CCC1)C(=O)NS(=O)(=O)C1CC1 [Compound 65, (2S)-2-tert-butyl-N1-[(1S)-1-{[(5R,8S)-8-({(1R,2S)-1-[(cyclopropylsulfonyl)carba-moyl]-2-vinylcyclopropyl}carbamoyl)-10,10-dimethyl-7-azadispiro[3.0.4.1]dec-7-yl]carbonyl}-2,2-dimethylpropyl]-N4,N4-dimethylsuccinamide]
